Reference: ChEMBL document CHEMBL1141784, “Phaeochromycins A-E, anti-inflammatory polyketides isolated from the soil actinomycete Streptomyces phaeochromogenes LL-P018” (J Nat Prod, 2005)

Target: MAP kinase-activated protein kinase 2 (Homo sapiens, UniProt P49137)
Experiment: Inhibition of human recombinant MK2 by ELISA

MAP kinase-activated protein kinase 2, sequence (P49137 whole entry): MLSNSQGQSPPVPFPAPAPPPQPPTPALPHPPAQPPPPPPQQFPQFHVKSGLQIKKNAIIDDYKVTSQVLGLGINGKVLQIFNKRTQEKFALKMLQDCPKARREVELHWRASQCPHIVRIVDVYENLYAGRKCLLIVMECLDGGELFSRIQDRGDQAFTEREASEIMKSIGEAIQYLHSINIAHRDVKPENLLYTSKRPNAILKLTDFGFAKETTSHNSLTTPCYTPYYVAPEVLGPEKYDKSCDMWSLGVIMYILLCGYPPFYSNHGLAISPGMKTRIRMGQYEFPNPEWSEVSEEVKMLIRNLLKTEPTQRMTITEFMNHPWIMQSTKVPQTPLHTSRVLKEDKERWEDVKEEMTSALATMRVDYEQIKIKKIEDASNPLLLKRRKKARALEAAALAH

Row | Structure (SMILES) | IC50 [µM]
1 | CCCc1cc(O)c2c(O)cccc2c1-c1cc(O)cc(=O)o1 [PHAEOCHROMYCINS A] | 39
2 | CCCc1cc(=O)c2c(Cc3cc(O)cc(=O)o3)cccc2o1 [PHAEOCHROMYCIN C] | 130
